What was measured:
[1] = tested on: osteoclast precursor RAW264.7 cells; type: cell-based
Method: FIGS. 6A and 6B relate to cAMP Assay Results. Cytotoxicity effects of the synthesized CB2 ligands. FIG. 5A: Cytotoxicity effects of compound 15. FIG. 5B: Cytotoxicity effects of compound 18. Osteoclast precursor RAW264.7 cells (1.5×10^3 cells/well) were seeded on 96-well plates. Cells were incubated with the indicated doses of compounds 15 and 18 for 48 hours. The percentage of cell survival was determined by the MTT assay. Data is the mean±SD of three experiments carried out in duplicate.
The cell-proliferation effect of our CB2 ligands on the osteoclast precursor RAW264.7 cells was assessed using MTT 3-(4,5-dimethylthiazol-2-yl)-2,5-diphenyltetrazolium bromide (Sigma, St. Louis, USA). […] Optical density was read at 540 nm and subtracted from the background at 720 nm. The effect of ligands on cell viability was expressed as percent cell viability, with vehicle-treated control cells set at 100% (Feng, R., et al., KD5170, a novel mercaptoketone-based histone deacetylase inhibitor, exerts antimyeloma effects by DNA damage and mitochondrial signaling. Mol Cancer Ther 2008, 7 (6), 1494-505).
The cytotoxicity assay was carried out to exclude that the high osteoclast formation inhibition effects were not due to the toxicity of the newly discovered compounds. The cytotoxic effects were measured by utilizing the MTT cell-viability assay. […]

[2] = molecular target: T1, CHO cells expressing human CB2 receptors (Homo sapiens, UniProt P34972); assay: cell-based LANCE cAMP assay; conditions: forskolin-stimulated, RO-20-1724 present, FIG. 4
T1 construct: expressed in transfected cells; host or cells: CHO cells, stably transfected
Method: FIG. 4 relates to cAMP Assay Results. LANCE signal of CB2 ligands. Stably transfected CHO cells expressing human CB2 receptors were utilized to carry out the LANCE cAMP assay. […] Data is mean±SEM of all experiments of two or more performed in triplicate.
(§1) The antibodies are labeled with Alexa Fluor dye that is sensitive to energy emissions. Briefly, the cell-based LANCE cAMP assays were performed on 384-well ProxiPlates using CHO cells stably expressing the CB2 receptors at density of 2×10^3 cells per well in 5 μL of RPMI-1640 medium (Gibco Laboratories, Grand Island, N.Y.) containing 1% dialyzed FBS, 25 mM HEPES, […], and 200 μg/ml of […]. After incubation overnight, 2.5 μL of cAMP antibody and RO20-1724 (a phosphodiesterase inhibitor) in stimulation buffer (DPBS 1×, containing 0.1% BSA) was added to each well, followed by the addition of 2.5 μL of the compound plus the forskolin complex (an adenyl cyclase activator). After incubation at room temperature for 45 minutes, 10 μL of detection buffer was added into each well. The plate was then incubated at room temperature for 1 hour. The plate was then measured in a Synergy H1 hybrid reader (BioTek) with excitation at 340 nm and emission at 665 nm. The results represent at least two independent experiments each in triplicates. EC50 values were determined by nonlinear regression dose-response curve (GraphPad Prism 5).
as §1, with “Cyclic AMP levels were measured by performing the cell-based LANCE cAMP-384 kit assay (PerkinElmer) as previously described 13-14. The assay is based on the competition between the europium-labeled cAMP tracer complex and sample cAMP for binding sites on cAMP-specific antibodies. The antibodies” for “The antibodies”
The LANCE cAMP assay was carried out to measure the functional activities of our synthesized CB2 selective ligands as previously described 14. Briefly, the assay was performed on 384-well plates using CHO cells stably expressing CB2 receptors in the presence of phosphodiesterase inhibitor, RO-20-1724 and adenyl cyclase activator, forskolin.

T1 sequence (P34972 whole entry): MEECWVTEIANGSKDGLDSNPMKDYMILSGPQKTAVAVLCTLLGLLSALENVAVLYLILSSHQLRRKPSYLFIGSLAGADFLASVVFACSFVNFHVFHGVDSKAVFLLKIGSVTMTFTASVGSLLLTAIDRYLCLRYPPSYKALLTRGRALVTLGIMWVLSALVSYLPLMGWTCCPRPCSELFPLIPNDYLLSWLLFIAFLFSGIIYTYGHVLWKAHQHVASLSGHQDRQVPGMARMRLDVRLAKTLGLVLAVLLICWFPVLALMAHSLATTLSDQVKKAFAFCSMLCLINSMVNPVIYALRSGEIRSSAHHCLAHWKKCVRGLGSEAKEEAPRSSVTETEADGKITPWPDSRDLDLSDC

CB2 functional activity (LANCE cAMP signal) [2] | Structure (SMILES) | cell viability as compared to the control group (MTT) [1]
inverse agonists | CCN(CC)c1ccc(CN(Cc2cc(OC)c(OC)c(OC)c2)S(=O)(=O)c2ccc(C=O)cc2)cc1 [Compound 18, N-(4-(diethylamino)benzyl)-4-formyl-N-(3,4,5-trimethoxybenzyl)benzenesulfonamide] | not significantly altered
CB2 selective agonist | CCN(CC)c1ccc(CN(Cc2cc(OC)c(OC)c(OC)c2)C(=O)c2cccs2)cc1 [Compound 11, N-(4-(diethylamino)benzyl)-N-(3,4,5-trimethoxybenzyl)thiophene-2-carboxamide] | 

Structure (SMILES) | CB2 functional activity (LANCE cAMP signal) [2] | cell viability as compared to the control group (MTT) [1]
CCN(CC)c1ccc(CN(Cc2cc(OC)c(OC)c(OC)c2)S(=O)(=O)/C=C/c2ccccc2)cc1 [Compound 15, (E)-N-(4-(diethylamino)benzyl)-2-phenyl-N-(3,4,5-trimethoxybenzyl)ethene-1-sulfonamidebenzenesulfonamide] | inverse agonists | not significantly altered

From patent publication US11059778B2, “Cannabinoid receptor CB2 ligand 4-(aminomethyl)-N, N-dialkylanilines” (UNIVERSITY OF PITTSBURGH—OF THE COMMONWEALTH SYSTEM OF …, priority 2015, dated 2021)
